From patent US20110110916A1, “METHODS FOR TREATING AND/OR PREVENTING CARDIOMYOPATHIES BY ERK OR JNK INHIBITION” (priority 2008, published 2011)

Columns and labels:
Type in all cases: in vivo, mouse
Lmna^H222P/H222P mice = experiment: Deaths during the 4-week treatment protocol; conditions: 4-week treatment from 16 weeks; PD98059 n=22, SP600125 n=29; DMSO 6 of n=28
Description: We assigned male Lmna^H222P/H222P mice 16 weeks of age to 3 different treatment arms (placebo DMSO, n=28; MEK1/2 inhibitor PD98059, n=22; JNK inhibitor SP600125, n=29) and examined parameters of cardiac structure and function at 20 weeks of age, after 4 weeks treatment. […] Lmna^H222P/H222P mice also have depressed cardiac contractility, with fractional shortening (FS) decreased by 20%-40% compared to Lmna^+/+ mice (13,15). Myocardial fibrosis occurs in Lmna^H222P/H222P mice at 16 weeks of age (16). At 20 weeks, LVEDD and LVESD increase further in Lmna^H222P/H222P mice and cardiac contractility also progressively deteriorates (16). During the 4-week treatment protocol, 6 mice in the DMSO group, 3 in the PD98059 group and 3 in the SP600125 group died prior to reaching 20 weeks of age for evaluation.

[1] = system: hearts from Lmna^H222P/H222P mice; experiment: Quantification of myocardial fibrotic area (Gomori's trichrome); conditions: 20 weeks of age; 3 mg/kg/day from 16 to 20 weeks; DMSO 15.01±0.9%
Description: Later-stage cardiomyopathy caused by LMNA mutations is characterized by myocardial fibrosis. […] We quantified the myocardial fibrotic area of each animal by determining the ratio of fibrotic tissue (blue stained with Gomori's trichrome) to the total tissue area in each micrograph (FIG. 8B). Hearts from DMSO-treated Lmna^H222P/H222P mice had 20.93%±2.45% fibrotic tissue per total surface examined (FIG. 8B).
Mice were sacrificed at 20 weeks of age, and freshly removed hearts were fixed in 4% formaldehyde for 48 hours, embedded in paraffin, sectioned at 5 μm and stained with hematoxylin, eosin and Gomori's trichrome and Syrius Red. Representative stained sections were photographed using a Microphot SA (Nikon) light microscope attached to a Spot RT Slide camera (Diagnostic Instruments) with a 10× objective. Images were processed using Adobe Photoshop CS (Adobe Systems).
Later-stage cardiomyopathy caused by LMNA mutations is characterized by myocardial fibrosis (21,22). […] We quantified the myocardial fibrotic area of each animal by determining the ratio of fibrotic tissue (blue stained with Gomori's trichrome) to the total tissue area in each micrograph (FIG. 34C). Hearts from DMSO-treated Lmna^H222P/H222P mice had 15.01±0.9% fibrotic tissue per total surface examined (FIG. 34D).

[2] = system: hearts from Lmna^H222P/H222P mice; experiment: Quantitative real-time RT-PCR of mRNAs in hearts of treated mice; conditions: for expression of Colla1, Colla2 and Fn1 / expression of Mlc-2a, NppA and NppB mRNAs: 20 weeks of age, 3 mg/kg/day from 16 to 20 weeks
Description: Total RNA was extracted using the Rneasy isolation kit (Qiagen) as previously described (96). cDNA was synthesized as previously described (96) using Omniscript Reverse Transcriptase (Qiagen) on total cellular RNA. For each replicate in each experiment, RNA from tissue samples of different animals was used. Primers were designed that correspond to mouse RNA sequences using Primer3 (http://frodo.wi.mit.edu/cgi-biniprimer3/primer3_www.cgi). The real-time RT-PCR reaction contained iQ SYBR green super mix (Bio-Rad), 200 nM of each primer and 0.2 μl of template in a 25 μl reaction volume. Amplification was carried out using appropriate primers and the MyiQ Single-Color Real-Time PCR Detection System (Bio-Rad) with an initial denaturation at 95° C. for 2 min followed by 50 cycles at 95° C. for 30 s and 62° C. for 30 s. Relative levels of mRNA expression were calculated using the CT method (67). Individual expression values were normalized by comparison with Gapdh mRNA.
Real-time reverse transcription-PCR (RT-PCR) was used to quantify tissue RNA levels. Total RNA was extracted from cardiac ventricles of mice using the Rneasy isolation kit (Qiagen) as previously described. cDNA was synthesized using Superscript first strand synthesis system according to the manufacturer's instructions (Invitrogen) on total RNA. For each replicate in each experiment, RNA from tissue samples of different animals was used. Primers were designed correspond to mouse RNA sequences using Primer3 (http://frodo.wi.mit.edu/cgi-bin/primer3/primer3_www.cgi) for Nppa (forward 5′-[…]-3′ [SEQ ID NO: 4], reverse 5′-[…]-3′ [SEQ ID NO: 5]), Nppb (forward 5′-[…]-3′ [SEQ ID NO: 6], reverse 5′-[…]-3′ [SEQ ID NO: 7]), Mlc-2a (forward 5′-[…]-3′ [SEQ ID NO: 8], reverse 5′-[…]-3′ [SEQ ID NO: 9]), Colla1 (forward 5′-[…]-3′ [SEQ ID NO: 10], reverse 5′-[…]-3′ [SEQ ID NO: 11]), Colla2 (forward 5′-[…]-3′ [SEQ ID NO: 12], reverse 5′-[…]-3′ [SEQ ID NO: 13]) and Fn1 (forward 5′-[…]-3′ [SEQ ID NO: 14], reverse 5′-[…]-3′ [SEQ ID NO: 15]). The real-time RT-PCR reaction contained iQ SYBR green super mix (Bio-Rad), 200 nM of each primer, and 0.2 μl of template in a 25 μl reaction volume. Amplification was carried out using the MyiQ Single-Color Real-Time PCR Detection System (Bio-Rad) with an initial denaturation at 95° C. for […] followed by 50 cycles at 95° C. for 30 s and 62° C. for 30 s. Relative levels of mRNA expression were calculated using the ΔΔCT method (2). Individual expression values were normalized by comparison with Gapdh mRNA (forward 5′-[…]-3′ [SEQ ID NO: 16], reverse 5′-[…]-3′ [SEQ ID NO: 17]).

JNK = experiment: Immunoblot of phosphorylated JNK versus total JNK in hearts of treated mice; conditions: for phosphorylation of JNK / JNK signaling in heart: treated 8 to 16 weeks of age, 3 mg/kg/day i.p.
Experimental: Hearts were excised from mice at 16-weeks of age and were homogenized in RIPA extraction buffer (Cell Signalling) containing protease inhibitors (25 […]). Protein samples were subjected to SDS-PAGE, transferred to nitrocellulose membranes and blotted with primary antibodies against ERK1/2 (Santa-Cruz), phosphorylated ERK1/2 (Cell Signaling), JNK (Santa-Cruz), natriuretic peptide precursor A (Santa-Cruz), phosphorylated JNK (Cell Signaling), and Gapdh (Ambion). Secondary antibodies were HRP-conjugated (Amersham). Recognized proteins were visualized by enhanced chemiluminescence (ECL, Amersham). The signal generated using an antibody against Gapdh was used as internal controls to normalize the amounts of protein between immunoblots.
Proteins were loaded on 10% SDS gels and electrotransferred on a […] pore size nitrocellulose membrane (Invitrogen). We used antibodies directed against phosphorylated ERK1/2 (Cell Signaling, 1:1,000), total ERK1/2 (Santa Cruz, 1:2,000), phosphorylated JNK (Cell Signaling, 1:1,000) and total JNK (Santa Cruz, 1:200). The secondary antibodies were coupled to horseradish-peroxydase (Amersham). Recognized proteins were visualized by enhanced chemiluminescence (SuperSignal® West Pico chemiluminescent substrate, Thermo Scientific).

[3] = pilot study, 24 weeks, treated from 19 weeks
[4] = 3 mg/kg/day from 16 to 20 weeks of age

| Structure (SMILES) | mice that died prior to reaching 20 weeks of age (Lmna^H222P/H222P mice) | area of fibrotic tissue per total surface examined [1] | expression of Colla1, Colla2 and Fn1 [2] | expression of Mlc-2a, NppA and NppB mRNAs [2] | expression of Elk1, Elk4, Atf2 and Atf4 ([2]; hearts at 16 weeks, treated 8 to 16 weeks) | cardiac expression of Mlc-2a, NppA, Colla1 and Colla2 mRNAs [2, 3] | cardiac expression of NppB mRNA [2, 3] | phosphorylation of JNK in hearts (JNK; [4]) | phosphorylation of JNK / JNK signaling in heart (JNK) | phosphorylation of JNK in hearts (JNK; pilot study, 24 week-old mice treated from 19 weeks) |
| --- | --- | --- | --- | --- | --- | --- | --- | --- | --- | --- |
| COc1cccc(-c2cc(=O)c3ccccc3o2)c1N [PD98059, 2-(2-amino-3-methoxyphenyl)-4H-1-benzopyran-4-one] | 3 | 4.48%±1% | significantly lowered | significantly decreased | decreased expression | significantly reduced | significantly reduced | not significantly inhibited | did not observe inhibition |  |
| O=C1c2ccccc2-c2n[nH]c3cccc1c23 [SP600125, anthra[1,9-cd]pyrazol-6(2H)-one] | 3 | 5.86%±0.4% | significantly lowered | significantly decreased |  | significantly reduced |  | partially blocked | blocked | partially blocked |
